These results are taken from ChEMBL document CHEMBL5126528, “Recent strategies targeting Embryonic Ectoderm Development (EED) for cancer therapy: Allosteric inhibitors, PPI inhibitors, and PROTACs” (Eur J Med Chem, 2022).

The target in test [1] is Histone-lysine N-methyltransferase EZH2 (Homo sapiens, UniProt Q15910). As to the kind of experiment: Inhibition of EZH2 (unknown origin).
The target of test [2] is T1, von Hippel-Lindau disease tumor suppressor/Histone-lysine N-methyltransferase EZH2 (Homo sapiens, UniProt Q15910+P40337). As to the kind of experiment: Protac activity at VHL/EZH2 in human HeLa cells assessed as degradation of protein measured after 24 hrs by Bradford assay kit method. Format: cell-based.
Target sequence in this assay (Q15910 whole entry): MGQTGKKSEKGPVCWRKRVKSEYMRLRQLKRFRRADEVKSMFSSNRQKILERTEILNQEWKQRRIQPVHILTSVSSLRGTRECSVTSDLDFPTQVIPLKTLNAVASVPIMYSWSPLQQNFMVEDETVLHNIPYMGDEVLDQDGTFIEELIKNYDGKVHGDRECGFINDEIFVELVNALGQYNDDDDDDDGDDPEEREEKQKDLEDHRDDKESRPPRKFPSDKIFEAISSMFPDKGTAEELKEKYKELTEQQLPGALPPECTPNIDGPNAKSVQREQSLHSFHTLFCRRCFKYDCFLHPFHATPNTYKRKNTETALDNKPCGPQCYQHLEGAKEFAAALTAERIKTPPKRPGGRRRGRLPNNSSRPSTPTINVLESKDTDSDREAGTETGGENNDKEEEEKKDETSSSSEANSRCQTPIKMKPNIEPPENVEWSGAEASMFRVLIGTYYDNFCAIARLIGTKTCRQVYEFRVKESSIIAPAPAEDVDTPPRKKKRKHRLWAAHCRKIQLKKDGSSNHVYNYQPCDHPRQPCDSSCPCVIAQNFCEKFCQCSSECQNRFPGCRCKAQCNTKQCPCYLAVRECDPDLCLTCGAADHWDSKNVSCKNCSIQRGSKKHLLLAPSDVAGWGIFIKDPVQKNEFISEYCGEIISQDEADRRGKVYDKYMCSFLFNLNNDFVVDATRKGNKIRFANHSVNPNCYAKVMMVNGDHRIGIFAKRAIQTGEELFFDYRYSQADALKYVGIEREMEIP
Target sequence in this assay (P40337 whole entry): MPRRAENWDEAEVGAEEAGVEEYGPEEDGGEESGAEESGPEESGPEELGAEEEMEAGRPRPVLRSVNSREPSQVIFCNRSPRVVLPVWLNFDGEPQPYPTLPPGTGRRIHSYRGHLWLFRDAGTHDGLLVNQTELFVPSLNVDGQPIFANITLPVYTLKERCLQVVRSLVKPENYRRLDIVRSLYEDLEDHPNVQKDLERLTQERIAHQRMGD
Test [3] concerns the target T2, von Hippel-Lindau disease tumor suppressor/Polycomb protein EED (Homo sapiens, UniProt O75530+P40337). As to the kind of experiment: Protac activity at VHL/EED in human DB cells assessed as degradation of protein measured after 24 to 72 hrs by Bradford assay kit method. Format: cell-based.
Target sequence in this assay (O75530 whole entry): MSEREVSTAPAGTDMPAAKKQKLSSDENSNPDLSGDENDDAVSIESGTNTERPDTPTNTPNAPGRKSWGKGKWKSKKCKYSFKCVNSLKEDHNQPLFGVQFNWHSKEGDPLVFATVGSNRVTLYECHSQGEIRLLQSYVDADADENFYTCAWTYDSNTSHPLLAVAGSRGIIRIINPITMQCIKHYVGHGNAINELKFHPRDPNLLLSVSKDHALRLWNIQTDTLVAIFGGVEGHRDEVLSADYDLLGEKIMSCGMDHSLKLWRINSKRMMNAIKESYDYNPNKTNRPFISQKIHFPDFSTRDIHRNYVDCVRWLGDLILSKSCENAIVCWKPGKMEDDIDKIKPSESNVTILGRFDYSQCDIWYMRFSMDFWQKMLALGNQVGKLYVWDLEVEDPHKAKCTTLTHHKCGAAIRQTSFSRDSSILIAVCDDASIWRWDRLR
Target sequence in this assay (P40337 whole entry): as the sequence (P40337 whole entry) above
In test [4] the target is T3, von Hippel-Lindau disease tumor suppressor/Polycomb protein SUZ12 (Homo sapiens, UniProt Q15022+P40337). As to the kind of experiment: Protac activity at VHL/SUZ12 in human DB cells assessed as degradation of protein measured after 24 to 72 hrs by Bradford assay kit method relative to control. Format: cell-based. To be noted: time 24-72 hrs.
Target sequence in this assay (P40337 whole entry, looked up): as the sequence (P40337 whole entry) above
Target sequence in this assay (Q15022 whole entry, looked up): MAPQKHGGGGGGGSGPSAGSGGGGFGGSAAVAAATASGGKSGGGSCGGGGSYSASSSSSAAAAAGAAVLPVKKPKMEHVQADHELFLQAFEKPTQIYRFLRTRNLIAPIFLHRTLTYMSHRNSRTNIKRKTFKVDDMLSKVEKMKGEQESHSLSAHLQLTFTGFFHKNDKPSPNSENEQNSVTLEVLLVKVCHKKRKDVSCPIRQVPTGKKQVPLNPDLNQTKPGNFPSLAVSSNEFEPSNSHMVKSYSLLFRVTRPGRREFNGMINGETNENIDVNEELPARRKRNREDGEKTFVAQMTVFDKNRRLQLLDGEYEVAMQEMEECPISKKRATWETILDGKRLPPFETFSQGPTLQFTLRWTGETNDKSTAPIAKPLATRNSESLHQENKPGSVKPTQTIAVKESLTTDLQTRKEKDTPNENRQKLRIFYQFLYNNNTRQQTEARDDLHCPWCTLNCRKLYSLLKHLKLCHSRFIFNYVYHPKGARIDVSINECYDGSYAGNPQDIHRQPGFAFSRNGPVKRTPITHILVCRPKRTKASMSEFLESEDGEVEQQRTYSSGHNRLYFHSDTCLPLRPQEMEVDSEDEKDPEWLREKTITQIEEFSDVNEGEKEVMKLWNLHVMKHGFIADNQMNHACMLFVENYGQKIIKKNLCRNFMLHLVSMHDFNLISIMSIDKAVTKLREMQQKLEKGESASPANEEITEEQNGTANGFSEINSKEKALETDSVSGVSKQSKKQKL
Test [5] concerns Pfeiffer. As to the kind of experiment: Antiproliferative activity against human Pfeiffer cells assessed as viable cells with replenishment of medium with compound for every three days upto 6 days by trypan blue staining based automated bio-rad TC20 cell counter method. Format: functional.
In test [6] the target is T3, von Hippel-Lindau disease tumor suppressor/Polycomb protein SUZ12. As to the kind of experiment: Protac activity at VHL/SUZ12 in human DB cells assessed as degradation of protein measured after 24 to 72 hrs by Bradford assay kit method. Format: cell-based.
Target sequence in this assay (Q15022 whole entry): as the sequence (Q15022 whole entry, looked up) above
Target sequence in this assay (P40337 whole entry): as the sequence (P40337 whole entry) above
Test [7] deals with T1, von Hippel-Lindau disease tumor suppressor/Histone-lysine N-methyltransferase EZH2. As to the kind of experiment: Protac activity at VHL/EZH2 in human DB cells assessed as degradation of protein measured after 24 to 72 hrs by Bradford assay kit method relative to control. Format: cell-based. Conditions: time 24-72 hrs.
Target sequence in this assay (P40337 whole entry, looked up): as the sequence (P40337 whole entry) above
Target sequence in this assay (Q15910 whole entry, looked up): as the sequence (Q15910 whole entry) above
Test [8] has the same target. As to the kind of experiment: Protac activity at VHL/EZH2 in human DB cells assessed as degradation of protein measured after 24 to 72 hrs by Bradford assay kit method. Format: cell-based.
Target sequence in this assay (Q15910 whole entry): as above
Target sequence in this assay (P40337 whole entry): as the sequence (P40337 whole entry) above
Test [9] concerns the target T2, von Hippel-Lindau disease tumor suppressor/Polycomb protein EED. As to the kind of experiment: Protac activity at VHL/EED in human DB cells assessed as degradation of protein measured after 24 to 72 hrs by Bradford assay kit method relative to control. Format: cell-based. To be noted: time 24-72 hrs.
Target sequence in this assay (O75530 2-441 limits assumed): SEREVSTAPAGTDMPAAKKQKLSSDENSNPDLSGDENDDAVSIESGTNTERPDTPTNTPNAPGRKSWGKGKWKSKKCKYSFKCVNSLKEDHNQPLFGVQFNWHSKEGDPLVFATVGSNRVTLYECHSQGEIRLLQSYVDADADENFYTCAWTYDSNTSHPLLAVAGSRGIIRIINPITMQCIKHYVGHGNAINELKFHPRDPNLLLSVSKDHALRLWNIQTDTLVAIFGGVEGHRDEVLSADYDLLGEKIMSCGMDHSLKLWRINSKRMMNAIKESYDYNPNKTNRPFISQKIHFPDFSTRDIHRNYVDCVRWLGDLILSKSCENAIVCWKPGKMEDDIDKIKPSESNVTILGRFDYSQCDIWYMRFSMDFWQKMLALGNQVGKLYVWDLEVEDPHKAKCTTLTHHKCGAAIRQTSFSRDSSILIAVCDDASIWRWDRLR
Target sequence in this assay (P40337 whole entry partner): as the sequence (P40337 whole entry) above
Test [10] deals with DB. As to the kind of experiment: Antiproliferative activity against human DB cells assessed as viable cells with replenishment of medium with compound for every three days upto 9 days by trypan blue staining based automated bio-rad TC20 cell counter method. Format: functional.
Test [11] deals with Pfeiffer. As to the kind of experiment: Antiproliferative activity against human Pfeiffer cells measured after 3 days by tryphan blue staining. Format: functional, cell-based. To be noted: 72 h.
Test [12] addresses T3, von Hippel-Lindau disease tumor suppressor/Polycomb protein SUZ12. As to the kind of experiment: Protac activity at VHL/SUZ12 in human HeLa cells assessed as degradation of protein measured after 24 hrs by […] relative to control. Format: cell-based.
Target sequence in this assay (P40337 whole entry, looked up): as the sequence (P40337 whole entry) above
Target sequence in this assay (Q15022 whole entry, looked up): as the sequence (Q15022 whole entry, looked up) above
Test [13] deals with T2, von Hippel-Lindau disease tumor suppressor/Polycomb protein EED. As to the kind of experiment: Protac activity at VHL/EED in human HeLa cells assessed as degradation of protein measured after 24 hrs by Bradford assay kit method. Format: cell-based.
Target sequence in this assay (O75530 whole entry): as the sequence (O75530 whole entry) above
Target sequence in this assay (P40337 whole entry): as the sequence (P40337 whole entry) above
In test [14] the test system is DB. As to the kind of experiment: Antiproliferative activity against human DB cells measured after 9 days by tryphan blue staining. Format: functional, cell-based. To be noted: 216 h.

Sequence of Histone-lysine N-methyltransferase EZH2 (Q15910 whole entry): as the sequence (Q15910 whole entry) above

For orientation: IC50 means the concentration that inhibits the measured activity by half. The low end stands for greater potency in that assay, the high end for weaker potency in that assay. For orientation: DC50 means the midpoint of the concentration-degradation curve. Broadly, the Emax is the size of the effect at its maximum, as opposed to the concentration needed. For orientation: EC50 means the concentration at which the effect is half-maximal. In the case of `Cc1ncsc1-c1ccc(CNC(=O)[C@@H]2C[C@@H](O)CN2C(=O)[C@@H](NC(=O)CCCNC(=O)c2ccc(-c3cnc(NCc4ccco4)n4cnnc34)cc2)C(C)(C)C)cc1`, the values for the IC50 (in [1]; in the test on Pfeiffer [11]) were 300 nM and 410 nM, respectively. The DC50 in test [2] was found to be 300 nM; in test [3], 610 nM; in test [6], 590 nM; in [8] it was 670 nM; in [13], 790 nM. Moreover, the maximal effect (Emax) in [4] is 82%; in [7], 96%; in [9], 94%; in [12], 22%. Besides, the values for the EC50 in the test with Pfeiffer [5], with DB [10] and in the test on DB [14] were 410 nM, 3400 nM and 3400 nM, respectively.
